{"source": "patent US20240207288A1", "about": "“METHODS OF TREATING ESOPHAGEAL STRICTURES” (Ellodi Pharmaceuticals, L.P., priority 2021, published 2024)", "assay_type_in_all_cases": "in vivo, human", "key": {"[1]": {"tested_on": "subjects with strictures and/or rings and EoE", "assay": "Clinical trial of FP ODT: dysphagia episodes (symptom response)", "conditions": "subgroup with strictures and/or Grade 2 rings at baseline, Week 12", "procedure": "(§1) A clinical trial was performed to evaluate the effect of an orally disintegrating tablet (“ODT”) comprising fluticasone propionate (FP). A randomised, double-blind, placebo-controlled, multicentre, dose-ranging, and maintenance study of FP in subjects (>18 and <75 years of age) with strictures and/or rings and EoE. The trial examined four doses of FP to define the exposure-response of FP and the minimum effective dose to minimize significant hypothalamic-pituitary-adrenal (HPA) axis effects. The study (as shown in FIG. 1) was designed as follows. • (a) Screening: Patients with a confirmed diagnosis or presumptive diagnosis of EoE (including identifying strictures and/or rings) were selected for the study. An EoE diagnosis was confirmed by symptoms, histology, and historical documentation of failed treatment on >8 weeks of high-dose proton pump inhibitor (PPI). A high-dose PPI was defined as administration of a total dose of 20 to 40 mg of a marketed PPI once or twice daily.\nSubjects that participated in Part 1 studies were randomized and administered a treatment selected from: • (a) 1.5 mg HS: Placebo 30 minutes after breakfast and 1.5 mg HS (at bedtime); • (b) 1.5 mg BID: 1.5 mg 30 minutes after breakfast and at bedtime; total daily dose of 3 mg; • (c) 3 mg HS: Placebo 30 minutes after breakfast and 3 mg at bedtime; and • (d) 3 mg BID: 3.0 mg 30 minutes after breakfast and at bedtime; total daily dose of 6 mg. […]"}, "[2]": {"tested_on": "subjects with strictures and/or rings and EoE", "assay": "Clinical trial of FP ODT: histologic response (peak eosinophils/HPF in oesophageal biopsies)", "conditions": "subgroup with strictures and/or Grade 2 rings at baseline, Week 12", "procedure": "as §1\n(§2) Subjects that participated in Part 1 studies were randomized and administered a treatment selected from: • (a) 1.5 mg HS: Placebo 30 minutes after breakfast and 1.5 mg HS (at bedtime); • (b) 1.5 mg BID: 1.5 mg 30 minutes after breakfast and at bedtime; total daily dose of 3 mg; • (c) 3 mg HS: Placebo 30 minutes after breakfast and 3 mg at bedtime; and • (d) 3 mg BID: 3.0 mg 30 minutes after breakfast and at bedtime; total daily dose of 6 mg.\nDuring Part 1 (Induction, Day 1 to Week 14), subjects received their randomized treatment for 14 weeks. At Week 12, the subjects underwent a response assessment, including an oesophagogastroduodenoscopy (EGD) to assess endoscopic and histologic status. Histologic responders and non-responders (at Week 12) entered Part 2.\nThe primary endpoint was the histologic responder rate at Week 12 of Part 1, […] 5 to 6 biopsies from the proximal and distal oesophagus (approximately 3 each) where the HPF area was […] (40 magnification lens with a 22 mm ocular)."}, "[3]": {"tested_on": "subjects with EoE (safety analysis set)", "assay": "Clinical trial of FP ODT: treatment-emergent adverse events", "procedure": "as §2\nPatient Population: 105 subjects received at least 1 dose of study drug in Part 1 of the study safety analysis set (SAF population), and 92 subjects ([…]) of those subjects completed Week 14. […] Subjects were classified according to their randomized treatment.\nSafety endpoints were measured such as Frequency of treatment-emergent adverse event (TEAEs); TEAEs leading to discontinuation; Treatment-emergent serious adverse events (SAEs); Percentage of subjects with serum cortisol level ≤5 μg/dL (≤138 nmol/L) or abnormal adrenocorticotropic hormone (ACTH) stimulation test (serum cortisol <16 μg/dL [≤440 nmol/L] at 60 minutes); The number of subjects discontinuing for HPA axis suppression will be recorded; and frequency of oral and esophageal candidiasis."}, "[4]": {"conditions": "all FP dosing groups, TOTAL (n = 43)"}}}
{"substance": "S-(fluoromethyl)-6α,9-difluoro-11β, 17-dihydroxy-16α-methyl-3-oxoandrosta-1, 4-diene-17β-carbothioate, 17-propanoate [FP]", "values": [{"measurement": "Symptoms Responder Rate (≤50% reduction dysphagia episodes), %", "setting": "[1]; FP 1.5 mg BID (n = 12)", "value": 42, "unit": "%"}, {"measurement": "Symptoms Responder Rate (≤50% reduction dysphagia episodes), %", "setting": "[1]; FP 1.5 mg HS (n = 13)", "value": 77, "unit": "%"}, {"measurement": "Symptoms Responder Rate (≤50% reduction dysphagia episodes), %", "setting": "[1]; FP 3 mg BID (n = 7)", "value": 57, "unit": "%"}, {"measurement": "Symptoms Responder Rate (≤50% reduction dysphagia episodes), %", "setting": "[1]; FP 3 mg HS (n = 11)", "value": 73, "unit": "%"}, {"measurement": "Symptoms Responder Rate (≤50% reduction dysphagia episodes), %", "setting": "[1]; [4]", "value": 63, "unit": "%"}, {"measurement": "Histology Responder Rate, %", "setting": "[2]; FP 1.5 mg BID (n = 12)", "value": 100, "unit": "%"}, {"measurement": "Histology Responder Rate, %", "setting": "[2]; FP 1.5 mg HS (n = 13)", "value": 54, "unit": "%"}, {"measurement": "Histology Responder Rate, %", "setting": "[2]; FP 3 mg BID (n = 7)", "value": 86, "unit": "%"}, {"measurement": "Histology Responder Rate, %", "setting": "[2]; FP 3 mg HS (n = 11)", "value": 82, "unit": "%"}, {"measurement": "Histology Responder Rate, %", "setting": "[2]; [4]", "value": 79, "unit": "%"}, {"measurement": "At least 1 TEAE, (%)", "setting": "[3]; FP 1.5 mg BID (n = 23)", "value": "(74) %"}, {"measurement": "Maximum severity of TEAE: Mild, (%)", "setting": "[3]; FP 1.5 mg BID (n = 23)", "value": "(61) %"}, {"measurement": "Maximum severity of TEAE: Moderate, (%)", "setting": "[3]; FP 1.5 mg BID (n = 23)", "value": "(13) %"}, {"measurement": "TEAE leading to study discontinuation, (%)", "setting": "[3]; FP 1.5 mg BID (n = 23)", "value": "(9) %"}, {"measurement": "TEAE of special interest, (%)", "setting": "[3]; FP 1.5 mg BID (n = 23)", "value": "(13) %"}, {"measurement": "TEAE related to study drug, (%)", "setting": "[3]; FP 1.5 mg BID (n = 23)", "value": "(22) %"}, {"measurement": "At least 1 TEAE, (%)", "setting": "[3]; FP 1.5 mg HS (n = 21)", "value": "(62) %"}, {"measurement": "Maximum severity of TEAE: Mild, (%)", "setting": "[3]; FP 1.5 mg HS (n = 21)", "value": "(52) %"}, {"measurement": "Maximum severity of TEAE: Moderate, (%)", "setting": "[3]; FP 1.5 mg HS (n = 21)", "value": "(5) %"}, {"measurement": "Maximum severity of TEAE: Severe, (%)", "setting": "[3]; FP 1.5 mg HS (n = 21)", "value": "(5) %"}, {"measurement": "TEAE related to study drug, (%)", "setting": "[3]; FP 1.5 mg HS (n = 21)", "value": "(10) %"}, {"measurement": "At least 1 TEAE, (%)", "setting": "[3]; FP 3 mg BID (n = 20)", "value": "(85) %"}, {"measurement": "Maximum severity of TEAE: Mild, (%)", "setting": "[3]; FP 3 mg BID (n = 20)", "value": "(60) %"}, {"measurement": "Maximum severity of TEAE: Moderate, (%)", "setting": "[3]; FP 3 mg BID (n = 20)", "value": "(25) %"}, {"measurement": "TEAE leading to study discontinuation, (%)", "setting": "[3]; FP 3 mg BID (n = 20)", "value": "(5) %"}, {"measurement": "TEAE of special interest, (%)", "setting": "[3]; FP 3 mg BID (n = 20)", "value": "(35) %"}, {"measurement": "TEAE related to study drug, (%)", "setting": "[3]; FP 3 mg BID (n = 20)", "value": "(50) %"}, {"measurement": "At least 1 TEAE, (%)", "setting": "[3]; FP 3 mg HS (n = 21)", "value": "(76) %"}, {"measurement": "Maximum severity of TEAE: Mild, (%)", "setting": "[3]; FP 3 mg HS (n = 21)", "value": "(29) %"}, {"measurement": "Maximum severity of TEAE: Moderate, (%)", "setting": "[3]; FP 3 mg HS (n = 21)", "value": "(43) %"}, {"measurement": "Maximum severity of TEAE: Severe, (%)", "setting": "[3]; FP 3 mg HS (n = 21)", "value": "(5) %"}, {"measurement": "Serious TEAE, (%)", "setting": "[3]; FP 3 mg HS (n = 21)", "value": "(5) %"}, {"measurement": "TEAE of special interest, (%)", "setting": "[3]; FP 3 mg HS (n = 21)", "value": "(5) %"}, {"measurement": "TEAE related to study drug, (%)", "setting": "[3]; FP 3 mg HS (n = 21)", "value": "(29) %"}, {"measurement": "At least 1 TEAE, (%)", "setting": "[3]; Total FP (n = 85)", "value": 74, "unit": "%"}, {"measurement": "Maximum severity of TEAE: Mild, (%)", "setting": "[3]; Total FP (n = 85)", "value": 51, "unit": "%"}, {"measurement": "Maximum severity of TEAE: Moderate, (%)", "setting": "[3]; Total FP (n = 85)", "value": 21, "unit": "%"}, {"measurement": "Maximum severity of TEAE: Severe, (%)", "setting": "[3]; Total FP (n = 85)", "value": "2 (2) %"}, {"measurement": "Serious TEAE, (%)", "setting": "[3]; Total FP (n = 85)", "value": "1 (1) %"}, {"measurement": "TEAE leading to study discontinuation, (%)", "setting": "[3]; Total FP (n = 85)", "value": 4, "unit": "%"}, {"measurement": "TEAE of special interest, (%)", "setting": "[3]; Total FP (n = 85)", "value": 13, "unit": "%"}, {"measurement": "TEAE related to study drug, (%)", "setting": "[3]; Total FP (n = 85)", "value": 25, "unit": "%"}]}
